{"source": "paper PMC4335020", "about": "“Single Oral Dose Pharmacokinetics of Decursin and Decursinol Angelate in Healthy Adult Men and Women” (PLoS ONE, 2015)", "assay": "Single oral dose human plasma pharmacokinetics of D, DA and DOH after Cogni.Q", "format": "in vivo", "source_text": "Ten healthy male and 10 female subjects were recruited by public announcement in Amarillo, TX, from January 2013 to April 2013 (see Fig. 1 CONSORT diagram). The sample size for each gender was chosen without power calculation due to the lack of prior knowledge of PK parameter variance in humans. After receiving informed consent verbally and in writing, the health status of each candidate was confirmed by health questionnaire, plasma biochemistry (hepatic and renal functions), complete blood cell count (CBC), and a physical examination by a participating academic physician. Subjects with diabetes, or pregnant, perinatal and breastfeeding women were excluded. For the 48 hours preceding study visit until the final blood draw, all subjects were instructed to avoid taking any prescription or nonprescription drugs, vitamins, and herbal/dietary supplements. Each subject was compensated for participating in the study per TTUHSC IRB approved rate.\nEligible subjects arrived at our clinical facility at 0700 (7:00 am) on the test day after a fast beginning at 2200 (10:00 pm) the previous night. After a brief review of vital signs, the nurse placed an intravenous (IV) line with saline drip in one arm of each subject. A baseline pre-dose (hour 0) blood sample was drawn through the IV line; after that subjects swallowed four Cogni.Q vegicaps with 240 mL of water at hour 0 under direct supervision. Subjects stayed at the clinical facility in their room for the next 12 hours, returning at 24 and 48 hours. Blood was drawn at baseline (hour 0) and at 0.5, 1, 2, 3, 4, 6, 8, 12, 24 and 48 hours after dosing into Vacutainer Blood Collection Tube (Becton-Dickinson, Franklin Lakes, NJ. Product Number: 367874, Sodium heparin was used as anti-coagulant). Water was allowed as desired except for within the first hour after Cogni.Q consumption. All subjects received standardized meals at post-dose hours 4.5 and 9.5 but no food was allowed for at least the first 4 hours post-dose.\nPlasma was prepared by centrifuging the heparinized blood at 1000 g for 15 minutes at room temperature. Urine samples (40mL) were collected within time spans of 0–4, 4–8, 8–12 and 12–24 hours (total volume of urine was recorded). All plasma and urine samples were put on dry ice immediately and then stored at -80°C freezer until analysis.\nPlasma samples were extracted with a validated solid supported liquid extraction (SLE) method facilitated with a positive pressure manifold (Biotage, Charlotte, NC). Briefly, 100 μL of plasma sample was spiked with 5 μL of 10 ng/μL prednisolone (IS), diluted with 200 μL of LC-MS grade water, mixed and loaded onto ISOLUTE SLE+ 400 μL Array Well cartridges (Biotage, Charlotte, NC). A pulse of minimum positive pressure was applied to facilitate the samples absorption into the cartridges. After the samples were allowed to absorb for 5 min, the compounds were eluted with 2×500 μL tert-butyl methyl ether. The eluent was dried in a Speedvac and the resulting residue was reconstituted in 50 μL of methanol for UHPLC-MS/MS analysis.\nEight-point calibration curves were constructed for D, DA and DOH, at concentrations of 0.1, 0.5, 1, 5, 10, 20, 50 and 100 μg/L for D and DA, and at concentrations of 1, 5, 10, 50, 100, 200, 500 and 1000 μg/L for DOH, respectively. The linear range was 0.1–100 μg/L (0.3–300 nmol/L), 0.1–100 μg/L (0.3–300 nmol/L) and 1–1000 μg/L (4–4000 nmol/L) for D, DA and DOH, respectively. The inter- and intra-assay CV were lower than 6.5% and the accuracy was between 90–105%. Calibration curve was run for each batch of samples analyzed. The mean calibration curve correlation coefficient (r) for D, DA and DOH was 0.999, 0.999 and 0.998, respectively (data from 7–10 calibration curves). In addition, 70% of the plasma samples were extracted and analyzed twice, the data from two replicate analyses were nearly identical and combined for final data analyses and presentation. […]", "note": "Where two headings read alike, the source gives them in different places."}
{"smiles": "CC1(C)Oc2cc3oc(=O)ccc3cc2C[C@@H]1O", "note": "[DOH, decursinol]", "values": [{"measurement": "Cmax", "setting": "both sexes, human, plasma, oral, 4 Cogni.Q vegicaps, n=20 (S1 Table), read-out: Cmax, nM, Grand Mean", "result": 2480, "unit": "nM"}, {"measurement": "Tmax", "setting": "both sexes, human, plasma, oral, 4 Cogni.Q vegicaps, n=20 (S1 Table), read-out: Tmax, h, Grand Mean", "result": 3.3, "unit": "h"}, {"measurement": "half-life", "setting": "both sexes, human, plasma, oral, all subjects, outliers excluded (S1 Table), read-out: Terminal t1/2, h, Grand Mean (converted)", "result": 444, "unit": "min"}, {"measurement": "Cmax", "setting": "both sexes, human, plasma, oral, human subjects, read-out: plasma C max, average value", "result": 2500, "unit": "nM"}, {"measurement": "AUC(0-t)", "setting": "both sexes, human, plasma, oral, n=20 (S1 Table), read-out: AUC0-48h, Grand Mean", "result": 27600, "unit": "nmol·h/L"}, {"measurement": "Cmax", "setting": "both sexes, human, plasma, oral, range over human subjects, read-out: plasma C max, range in human subjects", "result": "1300 to 4000", "unit": "nM"}, {"measurement": "Cmax", "setting": "both sexes, human, plasma, po, all human subjects n = 20, single oral dose 4 Cogni.Q vegicaps (119 mg D, 77 mg DA), plasma, read-out: Cmax, nmol/L Mean (SD)", "result": 2480, "unit": "nM"}, {"measurement": "AUC(0-t)", "setting": "both sexes, human, plasma, po, all human subjects n = 20, single oral dose Cogni.Q, plasma (Table 2), read-out: AUC0–48h, nmol/L, Mean (SD)", "result": 27600, "unit": "nmol·h/L"}, {"measurement": "AUC(0-t)", "setting": "both sexes, human, twenty healthy subjects, single oral dose Cogni.Q, plasma (abstract), read-out: mean area under the curve (AUC0-48h)", "result": 27600, "unit": "nmol·h/L"}, {"measurement": "Tmax", "setting": "both sexes, all human subjects n = 20, single oral dose 4 Cogni.Q vegicaps (119 mg D, 77 mg DA), plasma, read-out: Tmax, h, Mean (SD)", "result": 3.3, "unit": "h"}, {"measurement": "half-life", "setting": "both sexes, all human subjects, four outlier subjects excluded, single oral dose Cogni.Q, plasma, read-out: Terminal t1/2, h, Mean (SD) (converted)", "result": 444, "unit": "min"}, {"measurement": "AUC(0-t)", "setting": "female, human, plasma, oral, 4 Cogni.Q vegicaps, Women n=10 (S1 Table), read-out: AUC0-48h, Mean, F", "result": 32700, "unit": "nmol·h/L"}, {"measurement": "Cmax", "setting": "female, human, plasma, oral, 4 Cogni.Q vegicaps, Women n=10 (S1 Table), read-out: Cmax, nM, Mean, F", "result": 2610, "unit": "nM"}, {"measurement": "Tmax", "setting": "female, human, plasma, oral, Women n=10 (S1 Table), read-out: Tmax, h, Mean, F", "result": 4.1, "unit": "h"}, {"measurement": "half-life", "setting": "female, human, plasma, oral, Women, outliers excluded (S1 Table), read-out: Terminal t1/2, h, Mean, F (converted)", "result": 498, "unit": "min"}, {"measurement": "AUC(0-t)", "setting": "female, human, plasma, po, Women N = 10, single oral dose Cogni.Q, plasma, read-out: AUC0–48h, h.nmol/L Mean (SD)", "result": 32700, "unit": "nmol·h/L"}, {"measurement": "Cmax", "setting": "female, human, plasma, po, Women N = 10, single oral dose Cogni.Q, plasma, read-out: Cmax, nmol/L, Mean (SD)", "result": 2610, "unit": "nM"}, {"measurement": "Tmax", "setting": "female, human, plasma, po, Women N = 10, single oral dose Cogni.Q, plasma, read-out: Tmax, h, Mean (SD)", "result": 4.1, "unit": "h"}, {"measurement": "half-life", "setting": "female, human, plasma, po, Women, outlier subjects excluded, single oral dose Cogni.Q, plasma, read-out: T1/2, h, terminal Mean (SD) (converted)", "result": 498, "unit": "min"}, {"measurement": "half-life", "setting": "human, plasma, oral, 4 Cogni.Q vegicaps, subject S1 (115 lb), outlier, excluded from means, read-out: Terminal t1/2, h (converted)", "result": 594, "unit": "min"}, {"measurement": "AUC(0-t)", "setting": "human, plasma, oral, 4 Cogni.Q vegicaps, subject S1 (115 lb), read-out: AUC0-48h", "result": 17600, "unit": "nmol·h/L"}, {"measurement": "Cmax", "setting": "human, plasma, oral, 4 Cogni.Q vegicaps, subject S1 (115 lb), read-out: Cmax", "result": 2380, "unit": "nM"}, {"measurement": "Tmax", "setting": "human, plasma, oral, 4 Cogni.Q vegicaps, subject S1 (115 lb), read-out: Tmax", "result": 3, "unit": "h"}, {"measurement": "AUC(0-t)", "setting": "human, plasma, oral, 4 Cogni.Q vegicaps, subject S2 (194 lb), read-out: AUC0-48h", "result": 25000, "unit": "nmol·h/L"}, {"measurement": "Cmax", "setting": "human, plasma, oral, 4 Cogni.Q vegicaps, subject S2 (194 lb), read-out: Cmax", "result": 2390, "unit": "nM"}, {"measurement": "half-life", "setting": "human, plasma, oral, 4 Cogni.Q vegicaps, subject S2 (194 lb), read-out: Terminal t1/2, h (converted)", "result": 552, "unit": "min"}, {"measurement": "Tmax", "setting": "human, plasma, oral, 4 Cogni.Q vegicaps, subject S2 (194 lb), read-out: Tmax", "result": 4, "unit": "h"}, {"measurement": "half-life", "setting": "human, plasma, oral, 4 Cogni.Q vegicaps, subject S3 (170 lb), outlier, excluded from means, read-out: Terminal t1/2, h (converted)", "result": 312, "unit": "min"}, {"measurement": "AUC(0-t)", "setting": "human, plasma, oral, 4 Cogni.Q vegicaps, subject S3 (170 lb), read-out: AUC0-48h", "result": 8310, "unit": "nmol·h/L"}, {"measurement": "Cmax", "setting": "human, plasma, oral, 4 Cogni.Q vegicaps, subject S3 (170 lb), read-out: Cmax", "result": 1560, "unit": "nM"}, {"measurement": "Tmax", "setting": "human, plasma, oral, 4 Cogni.Q vegicaps, subject S3 (170 lb), read-out: Tmax", "result": 6, "unit": "h"}, {"measurement": "AUC(0-t)", "setting": "human, plasma, oral, 4 Cogni.Q vegicaps, subject S4 (170 lb), read-out: AUC0-48h", "result": 63700, "unit": "nmol·h/L"}, {"measurement": "Cmax", "setting": "human, plasma, oral, 4 Cogni.Q vegicaps, subject S4 (170 lb), read-out: Cmax", "result": 2680, "unit": "nM"}, {"measurement": "half-life", "setting": "human, plasma, oral, 4 Cogni.Q vegicaps, subject S4 (170 lb), read-out: Terminal t1/2, h (converted)", "result": 666, "unit": "min"}, {"measurement": "Tmax", "setting": "human, plasma, oral, 4 Cogni.Q vegicaps, subject S4 (170 lb), read-out: Tmax", "result": 6, "unit": "h"}, {"measurement": "AUC(0-t)", "setting": "human, plasma, oral, 4 Cogni.Q vegicaps, subject S5 (161 lb), read-out: AUC0-48h", "result": 19200, "unit": "nmol·h/L"}, {"measurement": "Cmax", "setting": "human, plasma, oral, 4 Cogni.Q vegicaps, subject S5 (161 lb), read-out: Cmax", "result": 1530, "unit": "nM"}, {"measurement": "half-life", "setting": "human, plasma, oral, 4 Cogni.Q vegicaps, subject S5 (161 lb), read-out: Terminal t1/2, h (converted)", "result": 462, "unit": "min"}, {"measurement": "Tmax", "setting": "human, plasma, oral, 4 Cogni.Q vegicaps, subject S5 (161 lb), read-out: Tmax", "result": 2, "unit": "h"}, {"measurement": "AUC(0-t)", "setting": "human, plasma, oral, 4 Cogni.Q vegicaps, subject S6 (120 lb), read-out: AUC0-48h", "result": 37500, "unit": "nmol·h/L"}, {"measurement": "Cmax", "setting": "human, plasma, oral, 4 Cogni.Q vegicaps, subject S6 (120 lb), read-out: Cmax", "result": 2770, "unit": "nM"}, {"measurement": "half-life", "setting": "human, plasma, oral, 4 Cogni.Q vegicaps, subject S6 (120 lb), read-out: Terminal t1/2, h (converted)", "result": 432, "unit": "min"}, {"measurement": "Tmax", "setting": "human, plasma, oral, 4 Cogni.Q vegicaps, subject S6 (120 lb), read-out: Tmax", "result": 4, "unit": "h"}, {"measurement": "AUC(0-t)", "setting": "human, plasma, oral, 4 Cogni.Q vegicaps, subject S7 (180 lb), read-out: AUC0-48h", "result": 51800, "unit": "nmol·h/L"}, {"measurement": "Cmax", "setting": "human, plasma, oral, 4 Cogni.Q vegicaps, subject S7 (180 lb), read-out: Cmax", "result": 3970, "unit": "nM"}, {"measurement": "half-life", "setting": "human, plasma, oral, 4 Cogni.Q vegicaps, subject S7 (180 lb), read-out: Terminal t1/2, h (converted)", "result": 390, "unit": "min"}, {"measurement": "Tmax", "setting": "human, plasma, oral, 4 Cogni.Q vegicaps, subject S7 (180 lb), read-out: Tmax", "result": 6, "unit": "h"}, {"measurement": "AUC(0-t)", "setting": "human, plasma, oral, 4 Cogni.Q vegicaps, subject S8 (160 lb), read-out: AUC0-48h", "result": 30400, "unit": "nmol·h/L"}, {"measurement": "Cmax", "setting": "human, plasma, oral, 4 Cogni.Q vegicaps, subject S8 (160 lb), read-out: Cmax", "result": 2530, "unit": "nM"}, {"measurement": "half-life", "setting": "human, plasma, oral, 4 Cogni.Q vegicaps, subject S8 (160 lb), read-out: Terminal t1/2, h (converted)", "result": 330, "unit": "min"}, {"measurement": "Tmax", "setting": "human, plasma, oral, 4 Cogni.Q vegicaps, subject S8 (160 lb), read-out: Tmax", "result": 3, "unit": "h"}, {"measurement": "AUC(0-t)", "setting": "human, plasma, oral, 4 Cogni.Q vegicaps, subject S9 (158 lb), read-out: AUC0-48h", "result": 17700, "unit": "nmol·h/L"}, {"measurement": "Cmax", "setting": "human, plasma, oral, 4 Cogni.Q vegicaps, subject S9 (158 lb), read-out: Cmax", "result": 2110, "unit": "nM"}]}
